Data: paper PMC7604311, “Caprine Bactenecins as Promising Tools for Developing New Antimicrobial and Antitumor Drugs” (Frontiers in Cellular and Infection Microbiology, 2020)
Ends that are not written are not given here.

Key:
MTT test = type: cell-based; settings: human, serum-free RPMI-1640, overnight incubation, mean ± SD of three independent tests, read-out: IC50 of cytotoxic action toward human PBMC
Method: Cytotoxic activity of peptides toward various types of eukaryotic cells was assessed using the standard MTT [3-(4,5-Dimethylthiazol-2-yl)-2,5-diphenyltetrazolium bromide] test ([Mosmann, 1983]). Human peripheral blood mononuclear cells (PBMC) were isolated from the peripheral blood of healthy donors. Whole heparinized blood diluted 3-fold with sterile PBS was carefully layered upon the 5 ml of the sterile Ficoll-400 (Pharmacia, Sweden) with a density of 1.077 in a sterile 50 ml conical tube and then centrifuged at 600 g and 4°C for 40 min. The mononuclear “ring” remaining above the Ficoll was collected using a transfer pipette and placed in another tube. Cells were washed twice with sterile PBS, resuspended in RPMI-1640 culture medium and immediately used for the test. Tumor cell lines were purchased from Biolot (Saint Petersburg, Russia) and cultured at 37°C and 5% CO2 in RPMI-1640 medium (Biolot, Saint Petersburg, Russia) supplemented with 10% fetal bovine serum, glutamine, and penicillin-streptomycin combination. For the experiments, cells were washed from the medium they were growing in and resuspended in serum- and antibiotic-free RPMI-1640. Cells were added at not less than 2 × 10^4 per well in sterile flat bottom 96-well microplates containing serial dilutions of tested peptides in RPMI-1640. For the positive control (100% viable cells), RPMI-1640 medium was used instead of the peptide solution, whereas for the negative control (0% viable cells) medium replaced both peptide and cells. Test plates were incubated at 37°C and 5% CO2 overnight, after which MTT metabolic marker in PBS (5 mg/ml) was introduced into each well. After an additional 4 h incubation, the reaction was stopped by adding isopropanol supplemented with 0.04 M HCl, in which the formazan crystals (formed as a result of MTT reduction in presence of metabolically active cells) were dissolved, and OD at 540 nm was measured. Background absorbance at 690 nm was subtracted from the results to countervail any unspecific OD fluctuations. The % of surviving cells was found as:
(2) Survival(%)=(ODsample−OD0% viable)/(OD100% viable−OD0% viable)×100%,
(§1) where ODsample, OD0% viable, and OD100% viable are respectively values of the OD at 540 nm minus the OD at 690 nm for the test sample and negative or positive controls. IC50 toxicity values were determined by nonlinear regression analysis of the dose response curves using Sigma Plot 11 (Systat Software Inc., USA). The experiments were repeated three times, with 3 parallels of samples and 4–6 parallels of controls each time.

E. coli ML-35p = experiment: Broth microdilution assay (MIC); type: cell-based, Escherichia coli; settings: 50% MH broth/50% 10 mM Na-P buffer pH 7.4 with 0.1% BSA, 1×10^6 CFU/ml, 20 h, median of 3–6 independent experiments in triplicate
Method: The minimal inhibitory concentrations (MIC) of peptides were determined using microdilution assay in Müller–Hinton (MH) broth in general accordance with the guidelines of the European Committee for Antimicrobial Susceptibility Testing. Test plates were additionally pretreated with 0.1% bovine serum albumin (BSA) in distilled H2O (incubated for 1 h at 37°C) to reduce possible non-specific binding of peptides to the plastic surface of the wells, as proposed for AMP activity measuring ([Tossi et al., 1997]; [Wiegand et al., 2008]). Two-fold serial dilutions of peptides starting with 2 × stock concentration were prepared in sterile 10 mM sodium phosphate (Na-P) buffer, pH 7.4, with 0.1% BSA. Thus, final solutions contained 50% of Na-P diluted peptide and 50% of MH broth with bacteria. Bacteria for testing were grown overnight, then transferred into a fresh portion of 2.1% MH medium and additionally incubated for 2–3 h to obtain bacterial culture in its mid-logarithmic growth phase, which was diluted down to the final concentration of 1 × 10^6 CFU/ml. Concentration of bacteria in growth medium was calculated based on its absorbance at 620 nm.
After 20 h of incubation of AMPs with bacteria MICs were determined as lowest concentrations of AMPs completely preventing the visible growth of bacteria. Tests were performed in 60-well Terasaki microplates (10 µl end volume, V-shaped bottom; Sarstedt, Germany); dilutions in each test were made in triplicate. Final MIC values were calculated as medians based on the results of 3–5 independent experiments.

U937 = experiment: MTT test; type: cell-based, human; settings: serum-free RPMI-1640, overnight incubation, mean ± SD of three independent tests, read-out: IC50 of cytotoxic action toward U937
Method: Cytotoxic activity of peptides toward various types of eukaryotic cells was assessed using the standard MTT [3-(4,5-Dimethylthiazol-2-yl)-2,5-diphenyltetrazolium bromide] test ([Mosmann, 1983]). Human peripheral blood mononuclear cells (PBMC) were isolated from the peripheral blood of healthy donors. Whole heparinized blood diluted 3-fold with sterile PBS was carefully layered upon the 5 ml of the sterile Ficoll-400 (Pharmacia, Sweden) with a density of 1.077 in a sterile 50 ml conical tube and then centrifuged at 600 g and 4°C for 40 min. The mononuclear “ring” remaining above the Ficoll was collected using a transfer pipette and placed in another tube. Cells were washed twice with sterile PBS, resuspended in RPMI-1640 culture medium and immediately used for the test. Tumor cell lines were purchased from Biolot (Saint Petersburg, Russia) and cultured at 37°C and 5% CO2 in RPMI-1640 medium (Biolot, Saint Petersburg, Russia) supplemented with 10% fetal bovine serum, glutamine, and penicillin-streptomycin combination. For the experiments, cells were washed from the medium they were growing in and resuspended in serum- and antibiotic-free RPMI-1640. Cells were added at not less than 2 × 10^4 per well in sterile flat bottom 96-well microplates containing serial dilutions of tested peptides in RPMI-1640. […] After an additional 4 h incubation, the reaction was stopped by adding isopropanol supplemented with 0.04 M HCl, in which the formazan crystals (formed as a result of MTT reduction in presence of metabolically active cells) were dissolved, and OD at 540 nm was measured. Background absorbance at 690 nm was subtracted from the results to countervail any unspecific OD fluctuations. […]
as §1, with “The experiments were repeated three times, with 3 parallels of samples and 4–6 parallels of controls each time.” left out

P. aeruginosa MDR 522/17 = type: cell-based, Pseudomonas aeruginosa; settings: MDR 522/17, 24 h
Method: Quantification of the biofilms forming in the presence of various concentrations of tested AMPs was performed using the crystal violet assay according to general guidelines ([Merritt et al., 2006]). Tests were performed in polystyrene 96-well plates with U-shaped bottom. Peptides were serially diluted in a bacterial growth medium (MH for A. baumannii or TSB for P. aeruguinosa) in a volume of 50 μl per well. Overnight cultures of tested bacteria in a stationary phase of growth were 50 times diluted and introduced into the experimental wells at the same volume of 50 μl. Samples were incubated for 24 h at 37°C. The content of the wells was then shacked out, the plates were gently washed from unattached planktonic bacteria in still water (poured into a large enough vessel); bacterial cells and matrix components adhered to the walls of the wells were stained with a 0.1% aqueous solution of crystal violet dye: 125 μl of dye solution was put into each well and incubated at room temperature for 10 min. After staining dye solution was removed, the plates were washed with clean water and allowed to air-dry. Finally, the bound dye was redissolved by adding 200 μl of 30% acetic acid into each well, incubating it for 15 min at room temperature, and then thoroughly mixing the content of the wells by pipetting. One hundred and twenty five microliters of crystal violet extract from each well were transferred into a flat-bottomed microtiter plate, and the optical density was measured at a wavelength of 560–595 nm (depending on the maximum of absorption in a particular experiment). Experimental samples were made in quadruplicates, and there were 8–9 repeats of control samples without peptides in each test. Presented results are medians calculated based on 3 independent experiments.

Row | Substance | IC50 (MTT test) [µM] | MIC (E. coli ML-35p) [µM] | IC50 (U937) [µM] | Biofilm inhibition (P. aeruginosa MDR 522/17) [%]
1 | RIHPPPFYPPFRRFL-NH2 [ChBac3.4 (12-26)] | 43.3 ± 7.7 | 64 | – | –
2 | RFRLPFRRPPIRIPPPFYPPFRRFL-NH2 [ChBac3.4(Н-)] | 34.7 ± 7.3 | 4 | – | –
3 | RFRLPFRRPPIRIH-NH2 [ChBac3.4(1-14)-NH2] | > 64 | 8 | > 64 | –
4 | RFRLPFRRPPIRIHPPPFY-NH2 [ChBac3.4(1-19)-NH2] | > 64 | 4 | > 64 | –
5 | RFRLPFRRIHPPPFVRIHPPPFYRRFL-NH2 [ChBac3.4-1-NH2] | 12.1 ± 0.8 | 4 | – | –
6 | RFRRFRLPFRRIHPPPFVRIHPPPFYRRFL-NH2 [RFR-ChBac3.4-1-NH2] | 18.3 ± 4.1 | 4 | – | 62 ± 1.5
